# Measured values from US8088801B2, “Aryloazol-2-yl cyanoethylamino compounds, method of making and method of using thereof” (Merial Limited, priority 2007, dated 2012).
# Tests used:
# Haemonchus contortus [1] = assay: Method A: screening against Haemonchus contortus, L1 larvae in microtitre plate; details: 96 h, 4 days assessment, read-out: motility inhibition; for inhibition at 0.04 ppm: test concentration 0.04 ppm; for inhibition at 0.01 ppm: test concentration 0.01 ppm; for inhibition at 0.0025 ppm: test concentration 0.0025 ppm; for inhibition at 0.15 ppm: test concentration 0.15 ppm
# Excerpt: Method A: Screening Method to Test Activity of Compounds Against Haemonchus contortus.
# [2] = tested on: Trichostrongylus colubriformis; assay: Method D: screening against Trichostrongylus colubriformis, L1 larvae in microtitre plate; details: 96 h, 4 days assessment, read-out: motility inhibition; for inhibition at 0.04 ppm: test concentration 0.04 ppm; for inhibition at 0.15 ppm: test concentration 0.15 ppm; for inhibition at 0.01 ppm: test concentration 0.01 ppm
# Description: Method D: Screening Method to Test Activity of Compounds Against Trichostrongylus colubriformis.
# Twenty L1 Trichostrongylus colubriformis larvae were added to wells of a microtitre plate containing a nutrient medium and the test compound in DMSO. The microtitre plate was then held at 27° C. where the L1 larvae were allowed to develop. An analysis was conducted at 4 days to determine successful development to the L3 stage. Larvae exposed to DMSO and no test compound served as controls. Compounds numbers 1.008, 1.014, 1.042, 1.047, 1.048, 1.073, 2.001, 2.003 and 2.020, gave at least 90% motility inhibition at a test concentration of 0.15 ppm at the 4 days assessment. Compounds numbers 1.001, 1.003, 1.007, 1.011, 1.037, 1.038, 1.043, 1.056, 1.066, 1.070, 1.071, 2.012 and 2.016, gave at least 90% motility inhibition at a test concentration of 0.04 ppm at the 4 days assessment. Compounds numbers 1.012, 1.020, 1.021, 1.033, 1.034, 1.039, 1.064, 1.065, 2.008, 2.009 and 3.005 gave at least 90% motility inhibition at a test concentration of 0.01 ppm at the 4 days assessment. Compounds numbers 1.094, 2.040, 2.048, 2.049, 3.006, 3.009, 3.011 and 3.012 gave at least 90% motility inhibition at a test concentration of 0.0025 ppm at the 4 days assessment.
# Haemonchus contortus [3] = assay: Method B: Haemonchus contortus in vivo in Mongolian gerbil, oral gavage; design: species or system Mongolian gerbil (Meriones unguiculatus); details: 72 h, Mongolian gerbils, read-out: reduction in nematode infestation; for inhibition in vivo at 100 mg/kg: necropsy 3 days after treatment
# Description: Method B: Screening Method to Test Activity of Compounds Against Haemonchus contortus In Vivo in Mongolian Gerbil (Meriones unguiculatus).
# Mongolian gerbils, at least five weeks old, were immunosuppressed and artificially infected with ca. 1000 ensheathed Haemonchus contortus third instar larvae. Six days after infection, the Mongolian gerbils were treated by oral gavage with the test compounds, dissolved in a mixture of 2 parts DMSO and 1 part polyethylene glycol (PEG400), at doses of 100 mg/kg and dissolved in pure polyethylene glycol (PEG400) at doses of 10 and 1 mg/kg. Jirds treated only with the placebo (2 parts DMSO and 1 part PEG400 or pure PEG400) served as controls. On day 9 (3 days after treatment) the jirds were euthanized and necropsied for recovery of parasites from the stomach. Efficacy was calculated as the average % reduction in the number of worms in each test group compared with the average number of worms from the control group. […] Compound numbers 1.001, 1.008, 1.012, 1.013 and 1.014 provided at least 95% reduction in nematode infestation in Mongolian gerbils treated by oral gavage with test article at a dose of 100 mg/kg. Compound numbers 1.012, 1.033, 1.064, 2.008, 2.037, 2.038, 2.040, 2.041, 3.001 provided at least 95% reduction in nematode infestation at a dose of 10 mg/kg. Compound numbers 1.094, 2.048, 3.001, 3.007 and 3.009, provided at least 95% reduction in nematode infestation at a dose of 1 mg/kg. Compound numbers 3.005, 3.006, 3.011, 3.012, 3.017 and 3.019, provided at least 95% reduction in nematode infestation at a dose of 0.5 mg/kg.
Structure (SMILES),inhibition at 0.04 ppm (Haemonchus contortus [1]) [%],inhibition at 0.04 ppm [2] [%],inhibition at 0.01 ppm (Haemonchus contortus [1]) [%],further results
"CC(C#N)(Cn1nc2cccc(Cl)c2n1)NC(=O)c1ccc(OC(F)(F)F)cc1 (stereo not shown) [Compound 1.043, N-[2-(4-Chloro-2H-benzotriazol-2-yl)-1-cyano-1-methylethyl]-4-trifluoromethoxybenzamide]",≥ 90,≥ 90,,
"CC(C#N)(Cn1nc2cc(Cl)cc(C(F)(F)F)c2n1)NC(=O)c1ccc(Oc2ccccc2)cc1 (stereo not shown) [Compound 1.042, N-[2-(6-Chloro-4-trifluoromethyl-2H-benzotriazol-2-yl)-1-cyano-1-methylethyl]-4-phenoxybenzamide]",≥ 90,,,inhibition at 0.15 ppm [2]: ≥ 90%
"CC(C#N)(Cn1nc2ccc(Br)cc2n1)NC(=O)c1ccc(OC(F)(F)F)cc1 (stereo not shown) [Compound 1.020, N-[2-(5-Bromo-2H-benzotriazol-2-yl)-1-cyano-1-methylethyl]-4-trifluoromethoxybenzamide]",,,≥ 90,inhibition at 0.01 ppm [2]: ≥ 90%
"CC(C#N)(Cn1nc2cc(C#N)cc(C(F)(F)F)c2n1)NC(=O)c1ccc(OC(F)(F)F)cc1 (stereo not shown) [Compound 1.056, N-[1-Cyano-2-(6-cyano-4-trifluoromethyl-2H-benzotriazol-2-yl)-1-methylethyl]-4-trifluoromethoxybenzamide]",≥ 90,≥ 90,,
"CC(C#N)(Cn1nc2ccc(Cl)cc2n1)NC(=O)c1ccc(OC(F)(F)F)cc1 (stereo not shown) [Compound 1.001, N-[2-(5-Chloro-2H-benzotriazol-2-yl)-1-cyano-1-methylethyl]-4-trifluoromethoxybenzamide]",,≥ 90,≥ 90,inhibition in vivo at 100 mg/kg (Haemonchus contortus [3]): ≥ 95%
"COc1c2ncc(Br)c(C)c2nn1CC(C)(C#N)NC(=O)c1ccc(OC(F)(F)F)cc1 (stereo not shown) [Compound 3.007, N-[2-(6-Bromo-3-methoxy-7-methyl-2H-pyrazolo[4,3-b]pyridin-2-yl)-1-cyano-1-methylethyl]-4-trifluoromethoxybenzamide]",,,≥ 90,inhibition in vivo at 1 mg/kg (Haemonchus contortus [3]): ≥ 95%
"COc1c2cc(Cl)ccc2nn1CC(C)(C#N)NC(=O)c1ccc(OC(F)(F)F)cc1 (stereo not shown) [Compound 2.012, N-[2-(5-Chloro-3-methoxy-2H-indazol-2-yl)-1-cyano-1-methylethyl]-4-trifluoromethoxybenzamide]",,≥ 90,≥ 90,
"COc1c2ccc(Cl)cc2nn1CC(C)(C#N)NC(=O)c1ccc(OC(F)(F)F)cc1 (stereo not shown) [Compound 2.008, N-[2-(6-Chloro-3-methoxy-2H-indazol-2-yl)-1-cyano-1-methylethyl]-4-trifluoromethoxybenzamide]",,,,inhibition at 0.0025 ppm (Haemonchus contortus [1]): ≥ 90%; inhibition in vivo at 10 mg/kg (Haemonchus contortus [3]): ≥ 95%; inhibition at 0.01 ppm [2]: ≥ 90%
"COc1c2ccccc2nn1CC(C)(C#N)NC(=O)c1ccc(OC(F)(F)F)cc1 (stereo not shown) [Compound 2.016, N-[1-Cyano-2-(3-methoxy-2H-indazol-2-yl)-1-methylethyl]-4-trifluoromethoxybenzamide]",≥ 90,≥ 90,,
"COc1c2ncc(Cl)cc2nn1CC(C)(C#N)NC(=O)c1ccc(OC(F)(F)F)cc1 (stereo not shown) [Compound 3.001, N-[2-(6-Chloro-3-methoxy-2H-pyrazolo[4,3-b]pyridin-2-yl)-1-cyano-1-methylethyl]-4-trifluoromethoxybenzamide]",,,,inhibition at 0.0025 ppm (Haemonchus contortus [1]): ≥ 90%; inhibition in vivo at 1 mg/kg (Haemonchus contortus [3]): ≥ 95%; inhibition in vivo at 10 mg/kg (Haemonchus contortus [3]): ≥ 95%
"CC(C#N)(Cn1cc2cc(Cl)cc(Cl)c2n1)NC(=O)c1ccc(OC(F)(F)F)cc1 (stereo not shown) [Compound 2.003, N-[1-Cyano-2-(5,7-dichloro-2H-indazol-2-yl)-1-methylethyl]-4-trifluoromethoxybenzamide]",≥ 90,,,inhibition at 0.15 ppm [2]: ≥ 90%
"Cc1cc(Cl)cc2nn(CC(C)(C#N)NC(=O)c3ccc(Oc4ccccc4)cc3)nc12 (stereo not shown) [Compound 1.039, N-[2-(6-Chloro-4-methyl-2H-benzotriazol-2-yl)-1-cyano-1-methylethyl]-4-phenoxybenzamide]",,,≥ 90,inhibition at 0.01 ppm [2]: ≥ 90%
"CC(C#N)(Cn1nc2cc(C(F)(F)F)cc(Cl)c2n1)NC(=O)c1ccc(OC(F)(F)F)cc1 (stereo not shown) [Compound 1.014, N-[2-(4-Chloro-6-trifluoromethyl-2H-benzotriazol-2-yl)-1-cyano-1-methylethyl]-4-trifluoromethoxybenzamide]",,,,inhibition at 0.15 ppm (Haemonchus contortus [1]): ≥ 90%; inhibition in vivo at 100 mg/kg (Haemonchus contortus [3]): ≥ 95%; inhibition at 0.15 ppm [2]: ≥ 90%
"COc1cc(Cl)c2nn(CC(C)(C#N)NC(=O)c3ccc(OC(F)(F)F)cc3)nc2c1 (stereo not shown) [Compound 1.070, N-[2-(4-Chloro-6-methoxy-2H-benzotriazol-2-yl)-1-cyano-1-methylethyl]-4-trifluoromethoxybenzamide]",≥ 90,≥ 90,,
"CC(C#N)(Cn1cc2cc([N+](=O)[O-])ccc2n1)NC(=O)c1ccc(OC(F)(F)F)cc1 (stereo not shown) [Compound 2.001, N-[1-Cyano-1-methyl-2-(5-nitro-2H-indazol-2-yl)ethyl]-4-trifluoromethoxybenzamide]",≥ 90,,,inhibition at 0.15 ppm [2]: ≥ 90%
"CC(C#N)(Cn1nc2cc(Cl)cc(C(F)(F)F)c2n1)NC(=O)c1ccc(OC(F)(F)F)cc1 (stereo not shown) [Compound 1.037, N-[2-(6-Chloro-4-trifluoromethyl-2H-benzotriazol-2-yl)-1-cyano-1-methylethyl]-4-trifluoromethoxybenzamide]",,≥ 90,≥ 90,
"CCC(C#N)(Cn1nc2ccc(Cl)cc2n1)NC(=O)c1ccc(OC(F)(F)F)cc1 (stereo not shown) [Compound 1.047, N-{1-[(5-Chloro-2H-benzotriazol-2-yl)methyl]-1-cyanopropyl}-4-trifluoromethoxybenzamide]",≥ 90,,,inhibition at 0.15 ppm [2]: ≥ 90%
"CC(C#N)(Cn1cc2ccc(Cl)cc2n1)NC(=O)c1ccc(OC(F)(F)F)cc1 (stereo not shown) [Compound 2.037, N-[2-(6-Chloro-2H-indazol-2-yl)-1-cyano-1-methylethyl]-4-trifluoromethoxybenzamide]",,,,inhibition at 0.0025 ppm (Haemonchus contortus [1]): ≥ 90%; inhibition in vivo at 10 mg/kg (Haemonchus contortus [3]): ≥ 95%
"COc1c2cc(Cl)cc(Cl)c2nn1CC(C)(C#N)NC(=O)c1ccc(OC(F)(F)F)cc1 (stereo not shown) [Compound 2.020, N-[1-Cyano-2-(5,7-dichloro-3-methoxy-2H-indazol-2-yl)-1-methylethyl]-4-trifluoromethoxybenzamide]",,,,inhibition at 0.15 ppm (Haemonchus contortus [1]): ≥ 90%; inhibition at 0.15 ppm [2]: ≥ 90%
"CC(C#N)(Cn1nc2cc(Cl)ccc2c1Br)NC(=O)c1ccc(OC(F)(F)F)cc1 (stereo not shown) [Compound 2.042, N-[2-(3-Bromo-6-chloro-2H-indazol-2-yl)-1-cyano-1-methylethyl]-4-trifluoromethoxybenzamide]",,,,inhibition at 0.0025 ppm (Haemonchus contortus [1]): ≥ 90%
"Cc1cc(Cl)c(C)c2nn(CC(C)(C#N)NC(=O)c3ccc(OC(F)(F)F)cc3)nc12 (stereo not shown) [Compound 1.092, N-[2-(5-Chloro-4,7-dimethyl-2H-benzotriazol-2-yl)-1-cyano-1-methylethyl]-4-trifluoromethoxybenzamide]",,,≥ 90,
"CC(C#N)(Cn1nc2ccc(Cl)cc2n1)NC(=O)c1ccc(Oc2ccccc2)cc1 (stereo not shown) [Compound 1.032, N-[2-(5-Chloro-2H-benzotriazol-2-yl)-1-cyano-1-methylethyl]-4-phenoxybenzamide]",≥ 90,,,
"Cc1c2ccc(Cl)cc2nn1CC(C)(C#N)NC(=O)c1ccc(OC(F)(F)F)cc1 (stereo not shown) [Compound 2.050, N-[2-(6-Chloro-3-methyl-2H-indazol-2-yl)-1-cyano-1-methylethyl]-4-trifluoromethoxybenzamide]",,,,inhibition at 0.0025 ppm (Haemonchus contortus [1]): ≥ 90%
